Among the data in ChEMBL document CHEMBL1148852, “Glucosamine sulfate promotes osteoblastic differentiation of MG-63 cells via anti-inflammatory effect” (2007) are Activity and Fold change values, retold here.

Each structure is given as a SMILES string. Calls of active or inactive are those of the source. The rule behind the calls is not given here.

Experiment [1] relates to MG-63. Kind of experiment: Cytotoxicity against human MG63 cells up to 1000 ug/ml after 48 hrs by MTT assay. In kind it is functional, cell-based. (In general: Formazan colour is commonly taken as a measure of viable cells.)
Experiment [2] has as its system MG-63. Kind of experiment: Increase in alkaline phosphatase activity in human MG63 cells at 5 ug/mL after 24 hrs. In kind it is functional, cell-based.
Experiment [3] concerns MG-63. Kind of experiment: Increase in alkaline phosphatase activity in human MG63 cells at 1000 ug/mL after 24 hrs. In kind it is functional, cell-based.
Experiment [4] relates to MG-63. The experiment in a line: Effect on osteocalcin secretion in human MG63 cells after 4 days. In kind it is functional, cell-based.
The test system of experiment [5] is MG-63. Kind of experiment: Increase of mineralization in human MG63 cells after 7 days. In kind it is functional, cell-based.
In experiment [6] the test system is MG-63. The experiment in a line: Increase of collagen synthesis in human MG63 cells after 7 days. In kind it is functional, cell-based.
For experiment [7], the system named is RAW. Kind of experiment: Inhibition of lipopolysaccharide stimulated TNFalpha synthesis in mouse RAW 264.7 cells. In kind it is functional, cell-based.
The test system of experiment [8] is RAW. The experiment in a line: Reduction of lipopolysaccharide stimulated IL1-beta synthesis in mouse RAW 264.7 cells. In kind it is functional, cell-based.
For experiment [9], the system named is RAW. Kind of experiment: Reduction of lipopolysaccharide stimulated PGE2 synthesis in mouse RAW 264.7 cells at 10 ug/mL. In kind it is functional, cell-based.
Experiment [10] relates to MG-63. The experiment in a line: Increase of collagen synthesis in human MG63 cells at 10 ug/mL relative to glucosamine. In kind it is functional.
Experiment [11] concerns MG-63. Kind of experiment: Increase in alkaline phosphatase activity in human MG63 cells after 24 hrs. In kind it is functional, cell-based.
The test system of experiment [12] is MG-63. Kind of experiment: Effect on alkaline phosphatase activity in human MG63 cells at 100 ug/mL after 24 hrs. In kind it is functional, cell-based.

For the compound `N[C@@H]1[C@@H](O)[C@H](O)[C@@H](COS(=O)(=O)O)O[C@H]1O`, the Activity entry is “Not toxic” in the experiment on MG-63 [1], “Dose-dependent effect” with MG-63 [4], “Dose-dependent effect” with MG-63 [6] and “Dose-dependent effect” in the experiment with MG-63 [11]. The result in the experiment on MG-63 [2], in the experiment with MG-63 [5], in the experiment on RAW [7], with RAW [8] and in the experiment on RAW [9] was Active. Also, the result in the experiment on MG-63 [3] was inactive. Also, the Fold change with MG-63 [10] turned out to be 3.
With `N[C@@H]1[C@@H](O)[C@H](O)[C@@H](CO)O[C@H]1O`, the Activity result with MG-63 [4] was “Dose-dependent effect”. The outcome with RAW [7] was Active. In the experiment on MG-63 [12], the outcome was inactive.
